Measurements taken from patent publication US20250066343A1, “NOVEL CANNAB[…] DERIVATIVE, PREPARATION METHOD THEREFOR, AND COMPOSITION COMPRISING SAME FOR IMPROVING COGNITIVE FUNCTION” (priority 2021, published 2025).

How the values were obtained:
Assay type in all cases: biochemical
[1] = molecular target: T1, Monoamine oxidase B (MAO-B) (Homo sapiens, UniProt P27338); test: Monoamine oxidase B inhibitory efficacy (kynuramine fluorescence assay); conditions: compound 0-200 μM; enzyme 2 mU/mL; kynuramine substrate; N.D. = Not Detected
T1 sequence (P27338 1-520): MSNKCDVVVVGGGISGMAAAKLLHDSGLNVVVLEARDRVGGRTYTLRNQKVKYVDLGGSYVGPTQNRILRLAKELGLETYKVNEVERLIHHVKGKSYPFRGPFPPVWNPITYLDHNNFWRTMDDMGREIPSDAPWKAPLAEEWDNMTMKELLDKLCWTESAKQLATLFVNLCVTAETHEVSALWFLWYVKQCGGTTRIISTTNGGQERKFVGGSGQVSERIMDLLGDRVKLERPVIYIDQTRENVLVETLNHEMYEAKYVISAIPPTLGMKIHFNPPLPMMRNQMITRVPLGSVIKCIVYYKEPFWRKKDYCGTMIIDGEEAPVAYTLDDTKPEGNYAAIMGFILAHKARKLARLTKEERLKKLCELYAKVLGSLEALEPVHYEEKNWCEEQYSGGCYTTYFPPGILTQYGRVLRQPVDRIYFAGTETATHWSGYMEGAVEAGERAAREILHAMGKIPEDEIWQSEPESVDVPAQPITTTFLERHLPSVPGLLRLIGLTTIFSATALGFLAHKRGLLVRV
Method: Samples were prepared by dilution with DMSO to give concentrations of 0, 2, 5, 10, 20, 50, 100, and 200 μM of the compound, and 5 μl was dispensed into a 96-well plate. 135 μl of potassium phosphate buffer (0.1 M, 7.4 pH) was dispensed into a 96-well plate. Monoamine oxidase B was prepared at 2 mU/mL, and 50 μl was added to the 96-well plate, mixed with the dispensed compound, and left for 20 minutes. The substrate, kynuramine solution, was prepared at 100 μM, then 10 μl was added to a 96-well plate and left for 10 min. The reaction was stopped by adding 75 μl of NaOH (2N). The enzyme activity was calculated by measuring the concentration of kynuramine degraded by the enzyme using a fluorometer under 310 nm (excitation)/380 nm (emission) conditions. For the fluorescence blank experiment, potassium phosphate buffer was added instead of monoamine oxidase B to correct the compound-induced fluorescence intensity values.

[2] = molecular target: Butyrylcholinesterase (BuChE) (Homo sapiens, UniProt P06276); test: Butyrylcholinesterase inhibitory efficacy (butyrylthiocholine/DTNB absorbance assay); conditions: compound 0-200 μM; enzyme 50 mU/ml; N.D. = Not Detected
Butyrylcholinesterase (BuChE), sequence (P06276 29-602): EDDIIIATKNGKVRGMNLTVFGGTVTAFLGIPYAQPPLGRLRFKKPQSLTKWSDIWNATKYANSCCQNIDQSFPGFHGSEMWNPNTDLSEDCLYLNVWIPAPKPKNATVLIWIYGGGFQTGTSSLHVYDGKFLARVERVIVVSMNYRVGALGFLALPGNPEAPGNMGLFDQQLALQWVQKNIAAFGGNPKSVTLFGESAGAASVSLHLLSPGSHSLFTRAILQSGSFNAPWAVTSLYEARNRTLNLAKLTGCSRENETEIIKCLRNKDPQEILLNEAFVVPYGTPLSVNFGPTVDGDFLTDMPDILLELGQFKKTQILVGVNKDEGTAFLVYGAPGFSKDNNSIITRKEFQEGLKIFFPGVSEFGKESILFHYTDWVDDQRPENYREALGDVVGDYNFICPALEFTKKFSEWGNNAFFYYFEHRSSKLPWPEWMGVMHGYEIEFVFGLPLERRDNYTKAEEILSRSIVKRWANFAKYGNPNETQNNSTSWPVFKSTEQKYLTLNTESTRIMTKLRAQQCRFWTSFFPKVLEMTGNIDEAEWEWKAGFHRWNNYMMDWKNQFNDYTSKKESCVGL
Method: (§1) Acetylcholinesterase or butyrylcholinesterase was prepared at 50 mU/ml, 50 μl was added to a 96-well plate, mixed with the aliquoted compound, and left for 10 minutes. The substrate, acetylthiocoline 0.05 mg/mL or butyrylthiocoline 0.1 mg/ml, was prepared and 50 μl was added to a 96-well plate and left for 10 minutes. Dithionitrobenzoic acid (DTNB) was prepared at 0.3 mg/ml, then 50 μl was added to a 96-well plate and left for 10 minutes.

[3] = molecular target: Acetylcholinesterase (AChE) (Homo sapiens, UniProt P22303); test: Acetylcholinesterase inhibitory efficacy (acetylthiocholine/DTNB absorbance assay)
Acetylcholinesterase (AChE), sequence (P22303 32-614, species assumed): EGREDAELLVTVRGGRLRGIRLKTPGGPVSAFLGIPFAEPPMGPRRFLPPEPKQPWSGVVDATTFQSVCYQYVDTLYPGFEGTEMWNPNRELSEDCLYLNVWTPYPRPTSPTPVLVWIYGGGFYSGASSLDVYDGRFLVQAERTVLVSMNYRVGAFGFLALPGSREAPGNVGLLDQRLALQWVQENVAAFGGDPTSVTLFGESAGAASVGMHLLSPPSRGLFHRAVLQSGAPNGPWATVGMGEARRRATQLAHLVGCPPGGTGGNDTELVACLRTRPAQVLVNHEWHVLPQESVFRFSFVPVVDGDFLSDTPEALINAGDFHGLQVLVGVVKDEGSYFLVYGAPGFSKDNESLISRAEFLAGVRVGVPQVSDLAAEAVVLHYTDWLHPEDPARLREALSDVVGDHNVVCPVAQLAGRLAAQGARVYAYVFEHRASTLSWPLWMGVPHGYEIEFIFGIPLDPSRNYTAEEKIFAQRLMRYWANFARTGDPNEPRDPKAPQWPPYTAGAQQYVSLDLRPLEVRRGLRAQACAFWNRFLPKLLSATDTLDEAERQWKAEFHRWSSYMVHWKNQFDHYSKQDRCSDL
Method: as §1

SMILES	IC50 [1]	IC50 [2]	IC50 [3]
CCCCCc1cc2c(c(O)c1C(=O)Nc1ccccc1)C=CC(C)(CCC=C(C)C)O2 (centres unmarked) [Compound 4b, 5-hydroxy-2-methyl-2-(4-methylpent-3-en-1-yl)-7-pentyl-N-phenyl-2H-chromene-6-carboxamide]	176 µM	94.6 µM	0.4 µM
CCCCCc1cc2c(c(O)c1C(=O)NC1Cc3ccccc3C1)C=CC(C)(CCC=C(C)C)O2 (centres unmarked) [Compound 4aa, N-(2,3-dihydro-1H-inden-2-yl)-5-hydroxy-2-methyl-2-(4-methylpent-3-en-1-yl)-7-pentyl-2H-chromene-6-carboxamide]	100 µM	164 µM	2 µM
CCCCCc1cc2c(c(O)c1C(=O)NC1CCN(C)CC1)C=CC(C)(CCC=C(C)C)O2 (centres unmarked) [Compound 4q, 5-hydroxy-2-methyl-2-(4-methylpent-3-en-1-yl)-N-(1-methylpiperidin-4-yl)-7-pentyl-2H-chromene-6-carboxamide]	131 µM	6.2 µM	–
CCCCCc1cc2c(c(O)c1C(=O)NN1CCCCC1)C=CC(C)(CCC=C(C)C)O2 (centres unmarked) [Compound 4z, 5-hydroxy-2-methyl-2-(4-methylpent-3-en-1-yl)-7-pentyl-N-(piperidin-1-yl)-2H-chromene-6-carboxamide]	156 µM	1.3 µM	29 µM
CCCCCc1cc2c(c(O)c1C(=O)N1CCN(CCO)CC1)C=CC(C)(CCC=C(C)C)O2 (centres unmarked) [Compound 4ae, (5-hydroxy-2-methyl-2-(4-methylpent-3-en-1-yl)-7-pentyl-2H-chromen-6-yl)(4-(2-hydroxyethyl)piperazin-1-yl)methanone]	55.8 µM	72.3 µM	< 0.5 µM
